Tested on: Brain tumor (9 L gliosarcoma)
Test: MRI (7T, 2D-RARE) T1/T2 measurement of excised subcutaneous tumor after ALA administration
Conditions: for Average T1 value / Average T2 value: ROI in excised tumor portion, ALA 100 mg/kg, 3 hours after administration, 7T-MRI, mean ± standard deviation

`NCC(=O)CCC(=O)O` [ALA, 5-aminolevulinic acid] was tested, and the “Average T1 value” (First average) was 2004 ± 73 ms, the “Average T2 value” (First average) was 146 ± 22 ms and the “Average T1 value” (Second average) was 2188 ± 210 ms. For the same compound, the “Average T2 value” (Second average) was 123 ± 5.7 ms, the “signal ratio (ALA administration group/control group) of T2 value” (first measurement) was “approximately 1.4 times” and the “signal ratio (ALA administration group/control group) of T2 value” (second measurement) was “approximately 1.3 times”.
